# Measurements published in US20180055816A1, “PYRANONAPHTHOQUINONE COMPOUNDS AND METHODS OF USE THEREOF” (University of Kentucky Research Foundation, priority 2016, published 2018).
# “Also recorded” adds a separate entry of the source.
# Assays:
# [1] = tested on: p70S6K phosphorylation; experiment: p70S6K phosphorylation in HCT116 cells (Western blot); type: cell-based, human; details: HCT116, 12 h; 2 μM FB or UCF76-A, 100 nM rapamycin, 0.5 μM AZD8055
# Procedure: (§1) HCT116 cells were treated with 1 μM MK2206 and 100 nM PD0325901 alone and in combination, 100 nM rapamycin, 0.5 μM AZD8055, 2 μM UCF76-A or 2 μM FB for 12 h followed by Western blot analysis for the indicated proteins.
# (§2) Cells were lysed in NP-40 lysis buffer (50 mM Tris-HCl, pH 7.5, 150 mM NaCl, 1 mM EDTA, 1% NP-40, 10% glycerol, protease and phosphatase inhibitor cocktail). Western blot analysis were performed using equivalent total protein loadings as described previously. For immunoprecipitation, the cell lysates were incubated with the indicated antibody overnight followed by incubation with a 50% slurry of protein G sepharose beads for 3 h at 4° C. The beads were washed three times with the lysis buffer, and the immunoprecipitated protein complexes were resuspended in 2× Laemmli sample buffer followed by western blot analysis.
# [2] = tested on: S6 phosphorylation; experiment: S6 phosphorylation in HCT116 cells (Western blot); type: cell-based, human; details: HCT116, 12 h; 2 μM FB or UCF76-A, 100 nM rapamycin, 0.5 μM AZD8055
# Procedure: as §1, §2
# [3] = tested on: AKT phosphorylation; experiment: AKT phosphorylation in HCT116 cells (Western blot); type: cell-based, human; details: HCT116, 12 h; 2 μM FB or UCF76-A, 0.5 μM AZD8055, 1 μM MK2206
# Procedure: as §1, §2
# [4] = tested on: cap-dependent translation; experiment: Cap-dependent translation bicistronic luciferase reporter assay in HCT116 cells; type: cell-based, human; details: 12 h
# [5] = target: T1, Prx1 (Homo sapiens, UniProt Q06830); experiment: Prx1 catalytic activity inhibition; type: biochemical; details: recombinant Prx1, 1 hour incubation
# T1 sequence (Q06830 1-199): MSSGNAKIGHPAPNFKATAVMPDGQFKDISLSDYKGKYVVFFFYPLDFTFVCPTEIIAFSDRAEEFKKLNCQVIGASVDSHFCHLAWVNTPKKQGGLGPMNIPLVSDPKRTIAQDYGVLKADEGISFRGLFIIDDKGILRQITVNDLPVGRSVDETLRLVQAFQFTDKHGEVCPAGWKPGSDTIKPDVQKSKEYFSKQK
# Procedure: The recombinant Prx1 protein was incubated with the indicated concentration of FB, 12, or conoidin A for 1 hour. Data are presented as mean±s.e.m. (n=3 technical replicates per condition). […]. Statistical significance was determined by the Student's t-test.
# Prx1 and Grx3 are antioxidant enzymes known to regulate oxidative stress. Prx1 catalyzes peroxide reduction of H2O2, whereas Grx3 functions as glutathione (GSH)-dependent oxidoreductase by participating in the conversion of reduced GSH to oxidized glutathione disulfide (GSSG). […] While Grx3 biochemical assays are lacking, FB and active analogs could lead to a decrease in GSH levels and an increase in GSSG levels in HCT116 cells (FIGS. 23A-B). As antioxidant enzymes utilize cysteine-containing active sites to reduce various cellular peroxide or disulfide substrates, the role of Prx1/Grx3 cysteines in FB ligand-binding was assessed through replacing their cysteines to alanines. […] Finally, mass spectrometry analysis confirmed the covalent modification of Prx1 and Grx3 by FB at these specific target sites. These cumulative studies provide strong validation of Prx1 and Grx3 as the predominate molecular targets of PNQs in cancer cells.
# [6] = tested on: 4E-BP1 phosphorylation; experiment: Inhibition of 4E-BP1 phosphorylation in HCT116 cells (Western blot); type: cell-based, human; details: for inhibition of 4E-BP1 phosphorylation: 12 h
# Procedure: (§3) Compounds that pass this single dose filter are then tested in a CRC (HCT116) in vitro cytotoxicity assay and, in parallel, an in vitro assay to assess propensity for intracellular reactive oxygen species (ROS) production using the redox sensitive probe CeIIROX® Deep Red reagent (Invitrogen) by flow cytometry analysis (47).
# as §2
# [7] = tested on: HCT116 cells; experiment: Apoptosis assay (propidium iodide/Annexin V flow cytometry) in HCT116 cells; type: cell-based, human; details: HCT116, 72 hours
# Procedure: (A) HCT116 cells were treated with different concentrations of FB and 12 for 12 hours. Cell lysates were precipitated with m^7GTP sepharose beads followed by Western blot analysis for the indicated proteins. (B) Inhibition of cap-dependent translation activity in HCT116 cells that were treated with the indicated compounds or DMSO as control for 12 hours was determined and analyzed as in FIG. 10A. (C) and (D) HCT116 cells were treated with different concentrations of FB and 12 for 72 hours. Apoptotic cells were analyzed by propidium iodide/Annexin V staining and flow cytometry (C). The results are expressed as the increased levels of apoptosis (D) by subtracting each of the DMSO-treated controls. All graphic data are presented as mean±s.e.m. (n=3 technical replicates per condition). *P<0.001 for 12 versus FB. Statistical significance was determined by the Student's t-test.
# (§4) Cell growth was assessed as described previously. Briefly, 5×10^4 cells were seeded in 6-well plates in triplicates. After 24 h, cells were treated with the indicated compounds and incubated at 37° C. The cells were cultured for 3 days and the number of viable cells was counted using the Vi-CELL XR 2.03 (Beckman Coulter, Brea, Calif.). For apoptosis, cells were analyzed by flow cytometry using the Annexin V-FITC Apoptosis Detection Kit according to the manufacturer's protocol (BD Biosciences, San Jose, Calif.).
# [8] = Tolerability in tumor-bearing nude mice (body weight, maximum tolerated dose); type: in vivo
# Procedure: Mice bearing HCT116 or DLD-1 CRC xenograft tumors were treated with compound 14 at 14 mg/kg or with vehicle control once per day for 5 consecutive days each week. The mouse body weight was measured twice per week in control and treated groups using a weighing scale. The results represent the mean body weight±s.e.m. (n=8 mice/group). *P>0.05 for 14 versus vehicle control in HCT116 or DLD-1 xenograft tumors. Statistical significance was determined by the Student's t-test.
# Male athymic nude mice (5-6 weeks old) were purchased from Taconic (Hudson, N.Y., USA). Experiments were carried out under a protocol approved by the University of Kentucky Institutional Animal Care and Use Committee. HCT116 and DLD-1 xenograft tumors were established by subcutaneously injecting 3×10^6 cells in a 1:1 mixture of media and Matrigel (BD Biosciences) into the right flank. For efficacy studies, mice were randomized among control and treated groups (n=8 per group) when tumors were well-established (˜120 mm^3). Compound 14 was prepared freshly in saline and administered by intraperitoneal injection at 14 mg/kg once per day, Mon-Fri per week. Control mice received saline solution. Tumor dimensions were measured using a caliper and tumor volumes were calculated as mm^3=π/6× larger diameter×(smaller diameter)^2. […]
# [9] = tested on: 4E-BP1 phosphorylation; experiment: Western blot of xenograft tumor extracts; type: in vivo, mice; details: HCT116 or DLD-1 xenograft tumors, 6 h after the final treatment, 14 mg/kg
# Procedure: FIGS. 34A-B. FB induces ROS production to repress 4E-BP1 phosphorylation and tumor growth in vivo. (A) Western blot analysis of representative tumors collected from mice in FIG. 32 6 h after the final treatment with 14 or vehicle control. (B) A proposed model for the anticancer mechanism of FB through targeting Prx1/Grx3 to induce ROS accumulation leading to inhibition of mTORC1/4E-BP1-mediated tarnaltion.
# (§5) Male athymic nude mice (5-6 weeks old) were purchased from Taconic (Hudson, N.Y., USA). Experiments were carried out under a protocol approved by the University of Kentucky Institutional Animal Care and Use Committee. HCT116 and DLD-1 xenograft tumors were established by subcutaneously injecting 3×10^6 cells in a 1:1 mixture of media and Matrigel (BD Biosciences) into the right flank. For efficacy studies, mice were randomized among control and treated groups (n=8 per group) when tumors were well-established (˜120 mm^3). Compound 14 was prepared freshly in saline and administered by intraperitoneal injection at 14 mg/kg once per day, Mon-Fri per week. Control mice received saline solution. Tumor dimensions were measured using a caliper and tumor volumes were calculated as mm^3=π/6× larger diameter×(smaller diameter)^2. Tumors were excised and snap frozen in liquid nitrogen, homogenized in 2% SDS lysis buffer and then processed for Western blot analysis as described previously^5.
# [10] = tested on: HCT116 xenograft tumors; experiment: HCT116 colon cancer xenograft in nude mice; type: in vivo; details: 14 mg/kg intraperitoneal, daily five days a week, 2 weeks
# Procedure: as §5
# [11] = Aqueous solubility
# [12] = tested on: DLD-1 xenograft tumors; experiment: DLD-1 colon cancer xenograft in nude mice; type: in vivo; details: 14 mg/kg intraperitoneal, daily five days a week, 2 weeks
# Procedure: as §5
# [13] = tested on: HCT116 cells; experiment: Cell growth / cytotoxicity in HCT116 cells; type: cell-based, human; details: Homo sapiens, HCT-116; colorectal cancer cell line HCT116
# Procedure: as §3, §4
# [14] = tested on: intracellular reactive oxygen species (ROS); experiment: Intracellular ROS production, CellROX Deep Red flow cytometry, HCT116 cells; type: cell-based, human
# Procedure: as §3
# The ROS production was determined using the CellROX Deep Red Flow Cytometry Assay Kit according to the manufacturer's protocol (Life Technologies). Briefly, cells were treated with 2 μM of the indicated compounds or DMSO as control for 1 h. After treatment, cells were incubated with 0.5 μM of CellROX Deep Red reagent for 1 h at 37° C., washed twice with PBS and immediately analyzed by a FACScan flow cytometer. For the measurement of cellular H2O2 level, cells were treated with 2 μM of the indicated compounds for 5 h.
structure (smiles),measurement,setting,value
COc1ccc(-c2ccc3c(N4CCOC[C@@H]4C)nc(N4CCOC[C@@H]4C)nc3n2)cc1CO [AZD8055],inhibition of p70S6K phosphorylation,[1],potently inhibited
same,inhibition of S6 phosphorylation,[2],potently inhibited
same,inhibition of AKT phosphorylation,[3],inhibited
"O=C1C[C@H]2O[C@@H](CCC(F)(F)F)C3=C(C(=O)c4c(Cl)ccc(O)c4C3=O)[C@H]2O1 [Compound 12, (3aR,5S,11bR)-10-Chloro-7-hydroxy-5-(3,3,3-trifluoropropyl)-3,3a,5,11b-tetrahydro-2H-benzo[g]furo[3,2-c]isochromene-2,6,11-trione]",inhibition of cap-dependent translation,[4],more potent that FB
same,inhibition of Prx1 catalytic activity,[5],potently inhibit
same,fold more potent than FB as an inhibitor of 4E-BP1 phosphorylation,[6]; relative to FB,up to 4 fold
same,induction of apoptosis compared with FB,[7],more potent that FB
"O=C1C[C@H]2O[C@@H](CCC(F)(F)F)C3=C(C(=O)c4c(Cl)ccc(OP(=O)(O)O)c4C3=O)[C@H]2O1 [Compound 14, (3aR,5S,11bR)-10-Chloro-2,6,11-trioxo-5-(3,3,3-trifluoropropyl)-3,3a,5,6,11,11b-hexahydro-2H-benzo[g]furo[3,2-c]isochromen-7-yl dihydrogen phosphate]",body weight loss,"[8]; 14 mg/kg once per day, 5 days each week, HCT116 or DLD-1 xenograft mice",without significant weight loss; also recorded: does not cause significant weight loss
same,MTD,"[8]; male, athymic nude, mouse, in vivo, intraperitoneal, 14 mg/kg, nude mice",14 mg/kg
same,4E-BP1 phosphorylation in tumor extracts,[9],inhibition of 4E-BP1 phosphorylation
same,tumor reduction,[10],64%
same,aqueous solubility,[11],aqueous soluble
same,tumor reduction,[12],56%
"C[C@@H]1CC(=O)[C@@H](O)[C@]2(O1)O[C@@H]1CC(=O)O[C@@H]1C1=C2C(=O)c2c(O)cccc2C1=O [GC, griseusen C]",inhibition of 4E-BP1 phosphorylation,[6],notable inhibition
same,IC50,[13],127 nM
same,ROS production compared with b47,[14],slightly lower
NC1(c2ccc(-c3nc4ccn5c(=O)[nH]nc5c4cc3-c3ccccc3)cc2)CCC1 [MK2206],inhibition of 4E-BP1 phosphorylation,[6],negligible modulation
same,inhibition of AKT phosphorylation,[3],effective inhibition
